{
  "source": "patent US6921665B2",
  "about": "“Selective antibody targeting of undifferentiated stem cells” (Roslin Institute (Edinburgh), priority 2001, dated 2005)",
  "molecules": {"B1": {"name": "BDNF: brain derived neurotrophic factor, member of the neurotrophin growth factor family (protein, UniProt P23560 19-247, looked up)", "Neurotrophic factor BDNF …": "APMKEANIRGQGGLAYPGVRTHGTLESVNGPKAGSRGLTSLADTFEHVIEELLDEDQKVRPNEENNKDADLYTSRVMLSSQVPLEPPLLFLLEEYKNYLDAANMSMRVRRHSDPARRGELSVCDSISEWVTAADKKTAVDMSGGTVTVLEKVPVSKGQLKQYFYETKCNPMGYTKEGCRGIDKRHWNSQCRTTQSYVRALTMDSKKRIGWRFIRIDTSCVCTLTIKRGR"}, "B2": {"name": "neurotrophin-3: member of the neurotrophin growth factor family (protein, UniProt P20783 139-257, looked up)", "Neurotrophin-3": "YAEHKSHRGEYSVCDSESLWVTDKSSAIDIRGHQVTVLGEIKTGNSPVKQYFYETRCKEARPVKNGCRGIDDKHWNSQCKTSQTYVRALTSENNKLVGWRWIRIDTSCVCALSRKIGRT"}},
  "key": {"H9 cell line": {"system": "H9 cell line", "experiment": "Sensitivity of the H9 line to GCV after TPAC vector treatment", "assay_type": "cell-based, human", "conditions": "subsequent studies", "source_text": "Thus, different hES cell lines respond to the TPAC vector."}, "[1]": {"system": "Undifferentiated H1 cells", "experiment": "Cell viability (PI exclusion, cells in ES gate) of H1 hES cells after TPAC vector and/or GCV", "assay_type": "cell-based, human", "conditions": "GCV alone", "method": "(§1) Undifferentiated H1 cells were plated into 24 well plates (1 confluent well of a 6 well plate split into 24 wells of a 24 well plate). After 48 h, some wells were infected with the TPAC vector at an MOI of 30 or 100. Four h after addition of the viral vector, medium was exchanged for new mouse embryonic fibroblast conditioned medium (mEF-CM); some wells received medium supplemented with 30 μM ganciclovir (GCV). Cells exposed to GCV were re-fed with mEF-CM containing 30 μM GCV daily for 4 days. On days 2,3, and 4 after the initiation of GCV treatment, wells were harvested and analyzed by flow cytometry to assess changes in 1) total cell number and 2) cell viability (measured by PI exclusion)."}, "[2]": {"system": "Undifferentiated H1 cells", "experiment": "Total cell number of undifferentiated H1 hES cells by flow cytometry after TPAC vector and/or GCV", "assay_type": "cell-based, human", "conditions": "GCV alone, 30 μM", "method": "as §1"}, "[3]": {"system": "tumor lines 143B, 293, HT1080, Bxpc-3', DAOY and NIH3T3", "experiment": "Ganciclovir treatment in vitro of tk/+ tumor lines carrying hTERT promoter/tk constructs", "assay_type": "cell-based", "conditions": "cells carrying pGRN266, pGRN267 or pGRN268", "method": "(§2) The ability of the hTERT promoter to specifically drive the expression of the thymidine kinase (tk) gene in tumor cells was tested using a variety of constructs: One construct, designated pGRN266, contains an EcoRI-FseI PCR fragment with the tk gene cloned into the EcoRI-FseI sites of pGRN263. pGRN263, containing approximately 2.5 kb of hTERT promoter sequence, is similar to pGRN150, but contains a neomycin gene as selection marker. pGRN267 contains an EcoRI-FseI PCR fragment with the tk gene cloned into the EcoRI-FseI sites of pGRN264. pGRN264, containing approximately 210 bp of hTERT promoter sequence, is similar to pGRN176, but contains a neomycin gene as selection marker. pGRN268 contains an EcoRI-XbaI PCR fragment with the tk gene cloned into the EcoRI-XbaI (unmethylated) sites of pGRN265. pGRN265, containing approximately 90 bp of hTERT promoter sequence, is similar to pGRN175, but contains a neomycin gene as selection marker.\n(§3) These hTERT promoter/tk constructs, pGRN266, pGRN267 and pGRN268, were re-introduced into mammalian cells and tk/+stable clones (and/or mass populations) were selected. […] Ganciclovir treatment had no effect on normal BJ cells."}, "[4]": {"system": "TPAC vector treated hES cells", "experiment": "Titration of GCV in TPAC vector treated hES cells", "assay_type": "cell-based, human", "conditions": "pGRN376 MOI 30; GCV 5-40 μM tested; day 2", "method": "Undifferentiated Hi cells were plated into 24 well plates (1 confluent well of a 6 well plate split into 24 wells of a 24 well plate). After 48 h, some wells were infected with pGRN376 at an MOI of 30. Four h after addition of the viral vector, medium was exchanged for new mEF-CM; some wells received medium supplemented with 5, 10, 20, 30, or 40 μM ganciclovir (GCV). Cells exposed to GCV were re-fed with mEF-CM containing GCV daily for 2 days. On day 2 after the initiation of GCV treatment, wells were harvested and analyzed by flow cytometry to assess changes in total cell number, and cell viability (measured by PI exclusion)."}, "hES lines H1 and H7": {"system": "hES lines H1 and H7", "experiment": "Comparison of different hES lines, total cell number after pGRN376 plus GCV", "assay_type": "cell-based, human", "conditions": "two hES lines", "method": "Undifferentiated hES of lines designated Hi and H7 cells were plated into 24 well plates (1 confluent well of a 6 well plate split into 24 wells of a 24 well plate). […] Four h after addition of the viral vector, medium was exchanged for new mEF-CM; some wells received medium supplemented with 20 μM GCV. Cells exposed to GCV were re-fed with mEF-CM containing GCV daily for 3 days. On day 4 after the initiation of GCV treatment, wells were harvested and analyzed by flow cytometry to assess changes in total cell number."}, "normal BJ cells": {"system": "normal BJ cells", "experiment": "Ganciclovir treatment in vitro of normal cells carrying hTERT promoter/tk constructs", "assay_type": "cell-based", "method": "as §2, §3"}, "hTERT expression": {"system": "hTERT expression", "experiment": "RT-PCR for hTERT expression after differentiation factors", "assay_type": "cell-based, human", "conditions": "after exposure of hES cells to the factor", "method": "For radioactive relative quantification of individual gene products, QuantumRNA™ Alternate18S Internal Standard primers (Ambion, Austin Tex., USA) were employed according to the manufacturer's instructions. Briefly, the linear range of amplification of a particular primer pair was determined, then coamplified with the appropriate mixture of alternate18S primers:competimers to yield PCR products with coinciding linear ranges. Before addition of AmpliTaq™ (Roche) to PCR reactions, the enzyme was pre-incubated with the TaqStar™ antibody (ProMega) according to manufacturer's instructions. Radioactive PCR reactions were analyzed on 5% non-denaturing polyacrylamide gels, dried, and exposed to phosphoimage screens (Molecular Dynamics) for 1 hour. Screens were scanned with a Molecular Dynamics Storm 860 and band intensities were quantified using ImageQuant™ software. Results are expressed as the ratio of radioactivity incorporated into the hTERT or OCT-4 band, standardized to the radioactivity incorporated into the 18s band.\nPrimers and amplification conditions for particular markers are as follows. […]"}, "hES cells": {"system": "hES cells", "experiment": "Neuron formation from hES cells with neurotrophin growth factors (β-tubulin positive cell count)", "assay_type": "cell-based, human", "conditions": "7 days of differentiation", "method": "The effect of several members of the neurotrophin growth factor family was examined. hES cells were differentiated by harvesting with collagenase, dissociating, and reseeding onto poly-ornithine coated cover slips. The cells were plated into DMEM/F12+N2+10% FBS overnight. The following day, the serum was removed from the medium and replaced with 10 ng/mL human bFGF and the growth factor being tested. After 24 hours, bFGF was removed from the medium. These cultures were fed every other day. They were fixed after 7 days of differentiation and immunostained for analysis. The number of neurons was evaluated by counting cells positive for β-tubulin. Cultures maintained in the presence of 10 ng/mL brain derived neurotrophic factor (BDNF) formed approximately 3-fold more neurons than the control cultures. Cultures maintained in neurotrophin-3 (1 ng/mL) formed approximately 2-fold more neurons than control cultures."}},
  "data": [
    {"molecule": "Nc1nc(O)c2ncn(COC(CO)CO)c2n1", "note": "[GCV, ganciclovir]", "values": [
      {"measurement": "sensitivity to GCV after TPAC vector treatment", "setting": "H9 cell line", "result": "highly sensitive"},
      {"measurement": "cells in ES gate", "setting": "[1]; day 2 (control 85%)", "result": 75, "unit": "%"},
      {"measurement": "cells in ES gate", "setting": "[1]; day 3 (control 82%)", "result": 68, "unit": "%"},
      {"measurement": "cells in ES gate", "setting": "[1]; day 4 (control 65%)", "result": 50, "unit": "%"},
      {"measurement": "cells as percent of the control wells", "setting": "[2]; day 2", "result": "approximately 55%"},
      {"measurement": "cells as percent of the control wells", "setting": "[2]; day 4", "result": 40, "unit": "%"},
      {"measurement": "effect of ganciclovir on tk/+ cells", "setting": "[3]", "result": "selective destruction of all tumor lines tested"},
      {"measurement": "optimal GCV concentration", "setting": "[4]", "result": "~20", "unit": "µM"},
      {"measurement": "sensitivity to GCV after treatment with the TPAC vector", "setting": "hES lines H1 and H7", "result": "sensitive"},
      {"measurement": "effect of ganciclovir", "setting": "normal BJ cells", "result": "no effect"}
    ]},
    {"molecule": "C[S+](C)[O-]", "note": "[dimethyl sulfoxide]", "values": [
      {"measurement": "expression of hTERT", "setting": "hTERT expression", "result": "markedly decreased"}
    ]},
    {"molecule": "B1", "values": [
      {"measurement": "neurons formed relative to control cultures", "setting": "hES cells; 10 ng/mL", "result": "approximately 3 fold"}
    ]},
    {"molecule": "B2", "values": [
      {"measurement": "neurons formed relative to control cultures", "setting": "hES cells; 1 ng/mL", "result": "approximately 2 fold"}
    ]}
  ]
}
